One block for each compound: values may come before it.
Assays:
[1] = system: Mus musculus; experiment: AUC (0 to infinity) in DIO mouse brain at 10 mg/kg, po; assay type: ADME, organism-based; set-up: time infinity, dose 10 mg/kg, route oral; details: in vivo
[2] = Drug level in DIO mouse brain at 10 mg/kg, po after 12 hrs; assay type: ADME, organism-based; set-up: dose 10 mg/kg, route oral; details: read-out: Drug uptake
[3] = biological target: hERG (KCNH2) (Homo sapiens, UniProt Q12809); experiment: Inhibition of hERG-mediated tail current expressed in HEK293 cells at 30 uM by patch clamp method; assay type: toxicity, cell-based; details: HEK293 cells that express hERG
[4] = biological target: Voltage-gated inwardly rectifying potassium channel KCNH2 (Homo sapiens, UniProt Q12809)
Description: Displacement of [3H]dofetilide from hERG expressed in HEK293 cell membrane

[5] = Half life in DIO mouse plasma at 10 mg/kg, po; assay type: ADME, organism-based; set-up: dose 10 mg/kg, route oral
[6] = Half life in DIO mouse brain at 10 mg/kg, po; assay type: ADME, organism-based; set-up: dose 10 mg/kg, route oral
[7] = Cmax in DIO mouse brain at 10 mg/kg, po; assay type: ADME, organism-based; set-up: dose 10 mg/kg, route oral
[8] = AUC (0 to infinity) in DIO mouse plasma at 10 mg/kg, po; assay type: ADME, organism-based; set-up: time infinity, dose 10 mg/kg, route oral
[9] = Cmax in DIO mouse plasma at 10 mg/kg, po; assay type: ADME, organism-based; set-up: dose 10 mg/kg, route oral
[10] = Drug level in DIO mouse plasma at 10 mg/kg, po after 12 hrs; assay type: ADME, organism-based; set-up: dose 10 mg/kg, route oral

Chain of Voltage-gated inwardly rectifying potassium channel KCNH2 (Q12809 whole entry): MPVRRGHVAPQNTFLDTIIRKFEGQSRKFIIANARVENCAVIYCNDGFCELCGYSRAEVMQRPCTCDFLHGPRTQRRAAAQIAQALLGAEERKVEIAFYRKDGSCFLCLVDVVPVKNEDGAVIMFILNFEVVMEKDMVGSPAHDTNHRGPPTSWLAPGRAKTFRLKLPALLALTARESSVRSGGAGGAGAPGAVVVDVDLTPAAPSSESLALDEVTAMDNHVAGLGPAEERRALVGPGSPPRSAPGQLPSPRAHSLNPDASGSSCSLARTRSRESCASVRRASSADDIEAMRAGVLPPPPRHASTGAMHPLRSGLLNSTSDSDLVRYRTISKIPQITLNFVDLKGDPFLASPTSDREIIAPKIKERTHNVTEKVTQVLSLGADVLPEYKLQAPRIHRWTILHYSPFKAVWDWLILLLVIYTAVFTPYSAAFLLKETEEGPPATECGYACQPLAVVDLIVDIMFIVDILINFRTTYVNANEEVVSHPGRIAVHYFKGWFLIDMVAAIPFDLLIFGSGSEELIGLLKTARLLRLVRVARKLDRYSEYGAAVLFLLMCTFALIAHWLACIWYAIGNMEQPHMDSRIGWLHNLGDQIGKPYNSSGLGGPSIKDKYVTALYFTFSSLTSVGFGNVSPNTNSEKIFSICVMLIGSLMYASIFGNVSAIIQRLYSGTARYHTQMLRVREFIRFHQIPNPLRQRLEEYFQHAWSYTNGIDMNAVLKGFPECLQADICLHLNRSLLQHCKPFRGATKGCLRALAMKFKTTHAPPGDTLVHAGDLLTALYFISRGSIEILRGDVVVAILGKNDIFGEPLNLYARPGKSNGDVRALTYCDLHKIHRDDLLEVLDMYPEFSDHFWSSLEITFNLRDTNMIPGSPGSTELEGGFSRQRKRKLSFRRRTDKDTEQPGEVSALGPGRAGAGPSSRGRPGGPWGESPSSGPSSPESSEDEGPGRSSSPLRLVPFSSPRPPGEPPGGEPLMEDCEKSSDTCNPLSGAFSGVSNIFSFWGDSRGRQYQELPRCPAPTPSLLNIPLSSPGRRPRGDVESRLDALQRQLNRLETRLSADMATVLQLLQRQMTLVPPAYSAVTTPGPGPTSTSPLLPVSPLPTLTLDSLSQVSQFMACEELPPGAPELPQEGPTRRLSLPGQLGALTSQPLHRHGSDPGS
Chain of hERG (KCNH2) (Q12809 whole entry): as above

AUC [1]: 1378 ng·h/g | concentration at 12 h [2]: 75 ng/g | half-life [5]: 2 h | half-life [6]: 8 h | Cmax [7]: 185 ng/g | AUC(0-inf) [8]: 3150 ng·h/mL | Cmax [9]: 598 ng/mL | concentration at 12 h [10]: 38 ng/mL
SMILES: O=C(NC1CCN(Cc2ccc(C(=O)NCCN3CCCC3)c(F)c2)CC1)c1cc(=O)c2ccc(F)cc2o1
inhibition at 30 µM [3]: 21% | IC50 [4]: > 100 µM

SMILES: O=C(NCCN1CCCC1)c1ccc(CN2CCC(NC(=O)c3cc(=O)c4ccc(F)cc4o3)CC2)c(Cl)c1
IC50 [4]: 11 µM

SMILES: COC(C)(C)CCOc1ccc(CN2CCC(NC(=O)c3cc(=O)c4ccc(F)cc4o3)CC2)cc1
IC50 [4]: 4.3 µM

SMILES: O=C(CCN1CCCCC1)Nc1ccc(CN2CCC(NC(=O)c3cc(=O)c4ccc(F)cc4o3)CC2)cc1F
IC50 [4]: 9.18 µM

SMILES: O=C(NC1CCN(Cc2ccc(OCCCN3C(=O)CSC3=O)c(F)c2)CC1)c1cc(=O)c2ccc(F)cc2o1
IC50 [4]: 8.5 µM

SMILES: COc1cc(C(=O)NCCN2CCCC2)ccc1CN1CCC(NC(=O)c2cc(=O)c3ccc(F)cc3o2)CC1
IC50 [4]: 6.6 µM

From ChEMBL document CHEMBL1139188, “Identification of diamino chromone-2-carboxamides as MCHr1 antagonists with minimal hERG channel activity” (Bioorg Med Chem Lett, 2007)
